Where “and” joins values, the source holds several entries; their conditions need not be identical. Equal entries are not always repeated. Inconclusive results and toxic doses are left out. Rule for the calls: active = survival T/C of 150% or more; inactive = T/C below 125% in these data. Peptide text beside a SMILES is read from it.
System: P388 leukemia ip, CD2F1 mice, survival T/C
Test: NCI In Vivo Anticancer Drug Screen. Data for tumor model P388 Leukemia (intraperitoneal) in CD2F1 (CDF1) mice
Settings: endpoint: median survival time, higher = longer survival
Summary of the method: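 Mice carrying the transplanted tumor received test compound or vehicle. Survival was recorded in each group, and the value is the treated-group measurement divided by that of the vehicle-treated control group.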

[1] = dose: 50.0 mg/kg/injection, schedule: Q01DX005 (ip), vehicle: saline
[2] = dose: 100.0 mg/kg/injection, schedule: Q01DX005 (ip), vehicle: saline
[3] = dose: 200.0 mg/kg/injection, schedule: Q01DX005 (ip), vehicle: saline
[4] = dose: 3.12 mg/kg/injection, schedule: Q01DX009 (ip), vehicle: saline with Tween-80
[5] = dose: 6.25 mg/kg/injection, schedule: Q01DX009 (ip), vehicle: saline with Tween-80
[6] = dose: 25.0 mg/kg/injection, schedule: Q01DX009 (ip), vehicle: saline with Tween-80
[7] = dose: 25.0 mg/kg/injection, schedule: Q01DX009 (ip), vehicle: saline
[8] = dose: 50.0 mg/kg/injection, schedule: Q01DX009 (ip), vehicle: saline
[9] = dose: 100.0 mg/kg/injection, schedule: Q01DX009 (ip), vehicle: saline
[10] = dose: 200.0 mg/kg/injection, schedule: Q01DX009 (ip), vehicle: saline
[11] = dose: 400.0 mg/kg/injection, schedule: Q01DX009 (ip), vehicle: saline
[12] = dose: 60.0 mg/kg/injection, schedule: Q01DX005 (ip), vehicle: saline with Tween-80
[13] = dose: 120.0 mg/kg/injection, schedule: Q01DX005 (ip), vehicle: saline with Tween-80
[14] = dose: 240.0 mg/kg/injection, schedule: Q01DX005 (ip), vehicle: saline with Tween-80
[15] = dose: 50.0 mg/kg/injection, schedule: Q01DX005 (ip), vehicle: saline with Tween-80
[16] = dose: 100.0 mg/kg/injection, schedule: Q01DX005 (ip), vehicle: saline with Tween-80
[17] = dose: 200.0 mg/kg/injection, schedule: Q01DX005 (ip), vehicle: saline with Tween-80
[18] = dose: 50.0 mg/kg/injection, schedule: Q01DX009 (ip), vehicle: saline with Tween-80
[19] = dose: 100.0 mg/kg/injection, schedule: Q01DX009 (ip), vehicle: saline with Tween-80
[20] = dose: 200.0 mg/kg/injection, schedule: Q01DX009 (ip), vehicle: saline with Tween-80
[21] = dose: 12.5 mg/kg/injection, schedule: Q01DX009 (ip), vehicle: saline with Tween-80
[22] = dose: 12.5 mg/kg/injection, schedule: Q01DX009 (ip), vehicle: saline
[23] = dose: 100.0 mg/kg/injection, schedule: Q01DX001 (ip), vehicle: saline with Tween-80
[24] = dose: 200.0 mg/kg/injection, schedule: Q01DX001 (ip), vehicle: saline with Tween-80
[25] = dose: 400.0 mg/kg/injection, schedule: Q01DX001 (ip), vehicle: saline with Tween-80

Measured: T/C

CC1CN(C(=O)OCC23COC4(C)CCC(C)(OC2)N34)CC(C)O1 (configuration not stated)
inactive: [1] 100 % of control | [2] 100 % of control | [3] 100 % of control

Cc1cc2nc3n(c2cc1C)C(=O)c1cc2ccccc2cc1-3
inactive: [4] 97 % of control | [5] 94 % of control | [6] 88 % of control

NC(N)=NCCCC(N)C(=O)NC(CCC(=O)O)C(=O)O (stereo not drawn) (H-Arg-Glu-OH; configuration not given here)
inactive: [7] 91 % of control | dose: 50.0 mg/kg/injection, schedule: Q01DX005 (ip), vehicle: Klucel (hydroxypropylcellulose) (HPC) 100 % of control | [8] 97 % of control | dose: 100.0 mg/kg/injection, schedule: Q01DX005 (ip), vehicle: Klucel (hydroxypropylcellulose) (HPC) 100 % of control | [9] 94 % of control | dose: 200.0 mg/kg/injection, schedule: Q01DX005 (ip), vehicle: Klucel (hydroxypropylcellulose) (HPC) 100 % of control | [10] 103 % of control | [11] 88 % of control

C#CCSc1n[nH]c(-c2ccco2)n1
inactive: [12] 101 % of control | [13] 105 % of control | [14] 105 % of control

CN(C)c1ccc(P(=O)(O)O)cc1
inactive: [15] 96 % of control | [16] 99 % of control | [17] 91 % of control

CC1COC(C)(C)P(c2ccccc2)C1 (configuration not stated)
inactive: [12] 102 % of control | [13] 105 % of control | [14] 106 % of control

CCN(CC)C(=O)Nc1ccc(OCC(O)CNC(C)(C)C)c(C(C)=O)c1 (configuration not stated)
inactive: dose: 50.0 mg/kg/injection, schedule: Q01DX009 (ip), vehicle: water 114 % of control | dose: 100.0 mg/kg/injection, schedule: Q01DX009 (ip), vehicle: water 102 % of control | dose: 200.0 mg/kg/injection, schedule: Q01DX009 (ip), vehicle: water 105 % of control

Cc1[nH]c2c(N)cccc2c1C
inactive: [18] 97 % of control | [19] 90 % of control | [20] 88 % of control

CC1=NN(C(=O)c2ccc(Cl)cc2)C(=O)C1N=Nc1ccc(S(=O)(=O)Nc2ccccn2)cc1 (configuration not stated)
inactive: [15] 102 % of control | [16] 94 % of control

CCOCN(COCC)C(C)Cc1ccccc1 (configuration not stated)
inactive: dose: 3.13 mg/kg/injection, schedule: Q01DX009 (ip), vehicle: saline with Tween-80 104 % of control | [5] 107 % of control | [21] 114 % of control | [6] 123 % of control

O=C(C1=C(NCc2ccccc2)CCCC1)c1ccccc1
inactive: [22] 97 % of control | [7] 100 % of control | [8] 104 % of control and 109 % of control

NCCCCCC(CCN)SCC1OC(n2cnc3c(N)ncnc32)C(O)C1O (configuration not stated)
inactive: dose: 15.0 mg/kg/injection, schedule: Q01DX005 (ip), vehicle: saline with Tween-80 109 % of control | dose: 30.0 mg/kg/injection, schedule: Q01DX005 (ip), vehicle: saline with Tween-80 103 % of control | [12] 96 % of control

NC(=Nc1ccccc1)c1ccccn1
inactive: [8] 95 % of control | [9] 94 % of control | [10] 95 % of control

O=S1(=O)N=C(N2CCOCC2)c2ccccc21
inactive: [15] 101 % of control | [16] 101 % of control | [17] 99 % of control

c1ccc(Cn2c(-c3ccccc3)c[n+]3ccsc23)cc1
inactive: [4] 117 % of control | [5] 115 % of control and 94 % of control | [21] 108 % of control and 117 % of control

O=C(NCCNC(=O)C12CC3CC(CC(C3)C1)C2)C12CC3CC(CC(C3)C1)C2
inactive: dose: 6.0 mg/kg/injection, schedule: Q01DX005 (ip), vehicle: Klucel (hydroxypropylcellulose) (HPC) 88 % of control | dose: 12.0 mg/kg/injection, schedule: Q01DX005 (ip), vehicle: Klucel (hydroxypropylcellulose) (HPC) 88 % of control | [23] 94 % of control | [24] 95 % of control | [25] 86 % of control

Cc1ccc(/C=C/C(=O)C(CN(C)C)CN(C)C)cc1C
inactive: dose: 6.25 mg/kg/injection, schedule: Q01DX005 (ip), vehicle: saline with Tween-80 100 % of control | dose: 12.5 mg/kg/injection, schedule: Q01DX005 (ip), vehicle: saline with Tween-80 109 % of control

CCN(CC)CCCC(C)Nc1ncnc2cc(Cl)ccc12 (configuration not stated)
inactive: [15] 97 % of control | [16] 94 % of control | [17] 94 % of control

CS(=O)(=O)OCCOc1ccc(-c2nc3ccccc3[nH]2)cc1
inactive: [23] 90 % of control | [24] 98 % of control | [25] 99 % of control

CN1C(=O)C(O)(c2c3c(c(C4(O)C(=O)N(C)c5ccccc54)c4c2OCO4)OCO3)c2ccccc21 (configuration not stated)
inactive: [12] 89 % of control | [13] 91 % of control | [14] 91 % of control

CC(=O)N1CCCC2=C1CCCCC2
inactive: dose: 100.0 mg/kg/injection, schedule: Q04DX003 (ip), vehicle: saline 92 % of control | dose: 200.0 mg/kg/injection, schedule: Q04DX003 (ip), vehicle: saline 100 % of control | dose: 400.0 mg/kg/injection, schedule: Q04DX003 (ip), vehicle: saline 101 % of control

Cc1cn(C2CC(F)C(CO)O2)c(=O)[nH]c1=O (configuration not stated)
inactive: [22] 106 % of control | [7] 101 % of control and 103 % of control | [8] 100 % of control and 110 % of control | [9] 101 % of control and 119 % of control | [10] 101 % of control | [11] 116 % of control

O=C1CCC2CCC1N2 (configuration not stated)
inactive: [1] 100 % of control | [2] 100 % of control | [3] 100 % of control

O=C1CCSc2ccccc21
inactive: [19] 95 % of control | [20] 109 % of control

CC(CO)CCC1OC2CC3C4CC=C5C=CCCC5(C)C4CCC3(C)C2C1C (configuration not stated)
inactive: dose: 2.25 mg/kg/injection, schedule: Q01DX005 (ip), vehicle: Klucel (hydroxypropylcellulose) (HPC) 107 % of control | dose: 4.5 mg/kg/injection, schedule: Q01DX005 (ip), vehicle: Klucel (hydroxypropylcellulose) (HPC) 104 % of control | dose: 9.0 mg/kg/injection, schedule: Q01DX005 (ip), vehicle: Klucel (hydroxypropylcellulose) (HPC) 97 % of control | dose: 18.0 mg/kg/injection, schedule: Q01DX005 (ip), vehicle: Klucel (hydroxypropylcellulose) (HPC) 96 % of control | dose: 36.0 mg/kg/injection, schedule: Q01DX005 (ip), vehicle: Klucel (hydroxypropylcellulose) (HPC) 124 % of control

COC1=CC(=O)C(C(C)=O)=C(C#N)C1=O
inactive: dose: 100.0 mg/kg/injection, schedule: Q04DX002 (ip), vehicle: saline with Tween-80 100 % of control | dose: 200.0 mg/kg/injection, schedule: Q04DX002 (ip), vehicle: saline with Tween-80 100 % of control | dose: 400.0 mg/kg/injection, schedule: Q04DX002 (ip), vehicle: saline with Tween-80 90 % of control

CC(=O)c1nc(-c2ccccc2)[nH]c1C
inactive: [6] 101 % of control | [18] 104 % of control | [19] 105 % of control | dose: 100.0 mg/kg/injection, schedule: Q04DX003 (ip), vehicle: saline with Tween-80 99 % of control | dose: 200.0 mg/kg/injection, schedule: Q04DX003 (ip), vehicle: saline with Tween-80 90 % of control

CC(C)(C)N1C(=O)NCC1(C)C
inactive: [8] 105 % of control | [9] 100 % of control | [10] 98 % of control

COc1c2c(c3c(c1OC)CN(CC(c1ccccc1)c1ccccc1)CC3)CCC2
inactive: dose: 100.0 mg/kg/injection, schedule: Q04DX002 (ip), vehicle: saline 101 % of control | dose: 200.0 mg/kg/injection, schedule: Q04DX002 (ip), vehicle: saline 103 % of control | dose: 400.0 mg/kg/injection, schedule: Q04DX002 (ip), vehicle: saline 103 % of control

Reference: PubChem BioAssay AID330 (DTP/NCI, 2004)
